In patent US6362369B1, “Phthalic acid diamide derivatives fluorine-containing aniline compounds as starting material, agricultural and horticultural insecticides, and a method for application of the insecticides” (Nihon Nohyaku Co., Ltd., priority 1997, dated 2002):

Assays:
[1] = test system: diamondback moth (Plutella xylostella); assay: Insecticidal effect on diamondback moth (Test Example 1); format: in vivo; conditions: for Insecticidal effect, Test Example 1 / Insecticidal effect (Test Example 1), judged from mortality: diamondback moth; for Insecticidal effect (Test Example 1), judged from mortality: judged by the criterion of Test Example 1; for Insecticidal effect on diamondback moth (Test Example 1), judged grade: mortality judged according to the criterion shown in Test Example 1
Outline: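 Eggs laid by adult moths on Chinese cabbage seedlings, which were immersed in test solution, air-dried and kept at 25 °C. Hatched insects counted 6 days after immersion and mortality calculated, with effect graded by criterion; triplicate groups of 10 insects.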

[2] = test system: rice leafroller (Cnaphalocrocis medinalis); assay: Insecticidal effect on rice leafroller (Test Example 3); format: in vivo; conditions: 500 ppm, 25° C., humidity 70%; for Insecticidal effect, Test Example 3: rice lamina immersed; for Insecticidal effect, Test Example 3 / Insecticidal effect on rice leafroller (Test Example 3), judged grade: four days after inoculation; for Insecticidal effect (Test Example 3), judged from mortality / Insecticidal effect on rice leafroller (Test Example 3), judged grade: rice lamina dip; for Insecticidal effect (Test Example 3), judged from mortality: 4 days after inoculation; for Insecticidal effect on rice leafroller (Test Example 3), judged grade: third-instar larvae
Outline: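 Groups of 10 third-instar larvae, in triplicate, are placed on air-dried lamina resting on wet filter paper. Incubation runs four days at 25° C with 70% humidity before survivors and dead are tallied.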

[3] = judged by the mortality criterion of Test Example 1
[4] = third-instar larvae of rice leafroller
[5] = mortality judged by criterion of Test Example 1
[6] = rice leafroller third-instar larvae

Cc1cc(OC(F)(F)F)ccc1NC(=O)c1c(Cl)cccc1C(=O)NC(C)C [compound 237]
Insecticidal effect, Test Example 1 [1, 3]: A (100) | Insecticidal effect, Test Example 3 [2, 4]: A (100)

Cc1cc(C(F)(C(F)(F)F)C(F)(F)F)ccc1NC(=O)c1cccc(I)c1C(=O)NCCc1cccnc1 [compound 1770]
Insecticidal effect (Test Example 1), judged from mortality [1]: A (100) | Insecticidal effect (Test Example 3), judged from mortality [2, 4]: A (100)

CCC(CO)NC(=O)c1cccc(Cl)c1C(=O)Nc1ccc(C(F)(F)C(F)(F)F)cc1C (stereo not drawn) [compound 1441]
Insecticidal effect, Test Example 1 [1, 5]: A (100) | Insecticidal effect, Test Example 3 [2, 6]: A (100)

Cc1cc(Cl)ccc1NC(=O)c1c(Br)ccc(Br)c1C(=O)NC(C)C [compound 341]
Insecticidal effect, Test Example 1 [1, 3]: A (100) | Insecticidal effect, Test Example 3 [2, 4]: A (100)

CC(C)NC(=O)c1cccc(Cl)c1C(=O)Nc1ccc2oc(C(F)(F)F)nc2c1 [compound 255]
Insecticidal effect, Test Example 1 [1, 3]: A (100) | Insecticidal effect, Test Example 3 [2, 4]: A (100)

CC(C)NC(=O)c1cccc(Br)c1C(=O)Nc1ccc(C(F)(F)F)cc1Cl [compound 315]
Insecticidal effect, Test Example 1 [1, 3]: A (100) | Insecticidal effect, Test Example 3 [2, 4]: A (100)

Cc1cc(Oc2ncc(C(F)(F)F)cc2Cl)ccc1NC(=O)c1c(F)cccc1C(=O)NC(C)C [compound 577]
Insecticidal effect on diamondback moth (Test Example 1), judged grade [1]: A (100) | Insecticidal effect on rice leafroller (Test Example 3), judged grade [2]: A (100)

Cc1cc(F)ccc1NC(=O)c1c(Br)cccc1C(=O)NC(C)C [compound 314]
Insecticidal effect, Test Example 1 [1, 3]: A (100) | Insecticidal effect, Test Example 3 [2, 4]: A (100)

CC(C)NC(=O)c1cccc(I)c1C(=O)Nc1ccc(OC(F)(F)F)cc1Br [compound 466]
Insecticidal effect on diamondback moth (Test Example 1), judged grade [1]: A (100) | Insecticidal effect on rice leafroller (Test Example 3), judged grade [2]: A (100)

COCC(C)NC(=O)c1cccc(I)c1C(=O)Nc1ccc(C(F)(F)C(F)(F)F)cc1C (stereo not drawn) [compound 1032]
Insecticidal effect, Test Example 1 [1, 5]: A (100) | Insecticidal effect, Test Example 3 [2, 6]: A (100)

CC(C)NC(=O)c1c(Cl)cccc1C(=O)Nc1ccc(OC(F)F)c(F)c1 [compound 137]
Insecticidal effect, Test Example 1 [1, 3]: A (100) | Insecticidal effect, Test Example 3 [2, 4]: A (100)

Cc1cc(OC(F)(F)C(F)F)c(Cl)cc1NC(=O)c1cccc([N+](=O)[O-])c1C(=O)NC(C)C [compound 718]
Insecticidal effect on diamondback moth (Test Example 1), judged grade [1]: A (100) | Insecticidal effect on rice leafroller (Test Example 3), judged grade [2]: A (100)

Cc1cc(C(F)(F)C(F)(F)F)ccc1NC(=O)c1cccc(Cl)c1C(=O)NCc1ccncc1 [compound 1394]
Insecticidal effect, Test Example 1 [1, 5]: A (100) | Insecticidal effect, Test Example 3 [2, 6]: A (100)

Cc1cc(Cl)ccc1NC(=O)c1cc(F)ccc1C(=O)NC(C)C [compound 532]
Insecticidal effect on diamondback moth (Test Example 1), judged grade [1]: A (100) | Insecticidal effect on rice leafroller (Test Example 3), judged grade [2]: A (100)

CC(C)NC(=O)c1c(I)cccc1C(=O)Nc1ccc(C(F)(C(F)(F)F)C(F)(F)F)c2c1CCCC2 [compound 1726]
Insecticidal effect (Test Example 1), judged from mortality [1]: A (100) | Insecticidal effect (Test Example 3), judged from mortality [2, 4]: A (100)

Cc1cc(OC(F)(F)C(Cl)(Cl)Cl)ccc1NC(=O)c1c(F)cccc1C(=O)NC(C)C [compound 552]
Insecticidal effect on diamondback moth (Test Example 1), judged grade [1]: A (100) | Insecticidal effect on rice leafroller (Test Example 3), judged grade [2]: B (99-90)

Cc1cc(OC(F)F)ccc1NC(=O)c1cc(I)ccc1C(=O)NC(C)C [compound 1205]
Insecticidal effect, Test Example 1 [1, 5]: A (100) | Insecticidal effect, Test Example 3 [2, 6]: A (100)

CC(C)NC(=O)c1ccccc1C(=O)Nc1ccc2c(c1)OC(F)(F)O2 [compound 1099]
Insecticidal effect, Test Example 1 [1, 5]: A (100) | Insecticidal effect, Test Example 3 [2, 6]: A (100)

CCN(CC)C(=O)c1c(F)cccc1C(=O)Nc1ccc(OC(F)(F)F)cc1C [compound 1527]
Insecticidal effect (Test Example 1), judged from mortality [1]: A (100) | Insecticidal effect (Test Example 3), judged from mortality [2, 4]: A (100)

CC(C)(C)NC(=O)c1c(I)cccc1C(=O)Nc1c(Cl)cc(Cl)c2c1OC(F)(F)O2 [compound 1748]
Insecticidal effect (Test Example 1), judged from mortality [1]: A (100) | Insecticidal effect (Test Example 3), judged from mortality [2, 4]: A (100)

CC(C)NC(=O)c1c(F)cccc1C(=O)Nc1ccc(SC(F)F)cc1 [compound 477]
Insecticidal effect on diamondback moth (Test Example 1), judged grade [1]: A (100) | Insecticidal effect on rice leafroller (Test Example 3), judged grade [2]: C (89-80)

CCNC(=O)c1c(F)cccc1C(=O)Nc1ccc(C(F)(F)C(F)(F)F)cc1F [compound 1510]
Insecticidal effect (Test Example 1), judged from mortality [1]: A (100) | Insecticidal effect (Test Example 3), judged from mortality [2, 4]: A (100)

C#CCNC(=O)c1cccc(I)c1C(=O)Nc1ccc(C(F)(F)C(F)(F)F)cc1C [compound 990]
Insecticidal effect, Test Example 1 [1, 5]: A (100) | Insecticidal effect, Test Example 3 [2, 6]: A (100)

CCOP(=O)(OCC)c1ccc(NC(=O)c2c(Cl)cccc2C(=O)NC(C)C)c(C)c1 [compound 251]
Insecticidal effect, Test Example 1 [1, 3]: A (100) | Insecticidal effect, Test Example 3 [2, 4]: A (100)

Cc1cc(OC(F)F)ccc1NC(=O)c1cccc(C)c1C(=O)NC(C)C [compound 751]
Insecticidal effect on diamondback moth (Test Example 1), judged grade [1]: A (100) | Insecticidal effect on rice leafroller (Test Example 3), judged grade [2]: A (100)

Cc1cc(C(F)(F)C(F)(F)F)ccc1NC(=O)c1ccccc1C(=O)NC(C)(C)CO [compound 1381]
Insecticidal effect, Test Example 1 [1, 5]: A (100) | Insecticidal effect, Test Example 3 [2, 6]: C (89-80)

CC(C)NC(=O)c1c(C(=O)Nc2ccc(SC(F)(F)Br)cc2)cccc1[N+](=O)[O-] [compound 1108]
Insecticidal effect, Test Example 1 [1, 5]: A (100) | Insecticidal effect, Test Example 3 [2, 6]: A (100)

Cc1cc(OC(F)(F)Br)ccc1NC(=O)c1c(Br)cccc1C(=O)NC(C)C [compound 327]
Insecticidal effect, Test Example 1 [1, 3]: A (100) | Insecticidal effect, Test Example 3 [2, 4]: A (100)

CC(C)NC(=O)c1cccc(Br)c1C(=O)Nc1ccc2c(c1)OCO2 [compound 337]
Insecticidal effect, Test Example 1 [1, 3]: A (100) | Insecticidal effect, Test Example 3 [2, 4]: A (100)

CCCN(CC)C(=O)c1c(F)cccc1C(=O)Nc1ccc(OC(F)F)cc1 [compound 1583]
Insecticidal effect (Test Example 1), judged from mortality [1]: A (100) | Insecticidal effect (Test Example 3), judged from mortality [2, 4]: A (100)

Cc1cc(OC(F)(F)C(F)F)ccc1NC(=O)c1c(F)cccc1C(=O)NC(C)C [compound 566]
Insecticidal effect on diamondback moth (Test Example 1), judged grade [1]: A (100) | Insecticidal effect on rice leafroller (Test Example 3), judged grade [2]: B (99-90)

Cc1cc(C(F)(F)C(F)(F)F)ccc1NC(=O)c1c(Cl)cccc1C(=O)NCc1cccnc1 [compound 1420]
Insecticidal effect, Test Example 1 [1, 5]: A (100) | Insecticidal effect, Test Example 3 [2, 6]: A (100)

Cc1ccc(F)cc1NC(=O)c1ccccc1C(=O)NC(C)C [compound 53]
Insecticidal effect, Test Example 1 [1, 3]: A (100) | Insecticidal effect, Test Example 3 [2, 4]: A (100)

Cc1cc(C(F)(F)C(F)(F)F)ccc1NC(=O)c1cccc(Cl)c1C(=O)N(C)Cc1cccc(Cl)c1 [compound 1578]
Insecticidal effect (Test Example 1), judged from mortality [1]: A (100) | Insecticidal effect (Test Example 3), judged from mortality [2, 4]: A (100)

Cc1cc(OC(F)(F)C(F)(F)Br)ccc1NC(=O)c1c(I)cccc1C(=O)NC(C)C [compound 444]
Insecticidal effect, Test Example 1 [1, 3]: A (100) | Insecticidal effect, Test Example 3 [2, 4]: A (100)

CCc1cc(OC(F)(F)F)ccc1NC(=O)c1ccccc1C(=O)NC(C)C [compound 1208]
Insecticidal effect, Test Example 1 [1, 5]: A (100) | Insecticidal effect, Test Example 3 [2, 6]: A (100)

CC(C)NC(=O)c1c(C(=O)Nc2ccccc2)cccc1[N+](=O)[O-] [compound 585]
Insecticidal effect on diamondback moth (Test Example 1), judged grade [1]: A (100) | Insecticidal effect on rice leafroller (Test Example 3), judged grade [2]: A (100)

Cc1cc(C(F)(F)C(F)(F)F)ccc1NC(=O)c1cccc(Cl)c1C(=O)NC1CCCO1 (stereo not drawn) [compound 1392]
Insecticidal effect, Test Example 1 [1, 5]: A (100) | Insecticidal effect, Test Example 3 [2, 6]: A (100)

Cc1cc(C(F)(F)C(F)(F)F)ccc1NC(=O)c1cccc(Cl)c1C(=O)NCc1ccc(Cl)cc1 [compound 1333]
Insecticidal effect, Test Example 1 [1, 5]: A (100) | Insecticidal effect, Test Example 3 [2, 6]: A (100)

CCN(CC)C(=O)c1ccccc1C(=O)Nc1ccc(Cl)cc1C [compound 1752]
Insecticidal effect (Test Example 1), judged from mortality [1]: A (100) | Insecticidal effect (Test Example 3), judged from mortality [2, 4]: A (100)

Cc1cc(OC(F)F)ccc1NC(=O)c1cccc([S+]([O-])CC(F)(F)F)c1C(=O)NC(C)C (stereo not drawn) [compound 799]
Insecticidal effect on diamondback moth (Test Example 1), judged grade [1]: A (100) | Insecticidal effect on rice leafroller (Test Example 3), judged grade [2]: A (100)

CNC(=O)c1cccc(I)c1C(=O)Nc1ccc(C(F)(F)C(F)(F)F)cc1C [compound 1312]
Insecticidal effect, Test Example 1 [1, 5]: A (100) | Insecticidal effect, Test Example 3 [2, 6]: A (100)
